Laboratory results from patent US9962398B2, “Sulfonamide compounds for inhibition of metastatic tumor growth” (Welichem Biotech Inc., priority 2010, dated 2018).
Where two headings read alike, the source gives them in different places.

Key:
hCA IX = hCA IX (Homo sapiens (Human), UniProt Q16790)
hCA XII = hCA XII (Homo sapiens (Human), UniProt O43570); conditions: read-out: KI (nM) Activity hCAXII; Table 1
[1] = read-out: KI (nM) Activity hCAIX, Table 1
[2] = read-out: Ki (nM) hCA IX, Table 2
[3] = read-out: Ki (nM) hCA IX, Table 3

Sequence of hCA XII (O43570 25-354): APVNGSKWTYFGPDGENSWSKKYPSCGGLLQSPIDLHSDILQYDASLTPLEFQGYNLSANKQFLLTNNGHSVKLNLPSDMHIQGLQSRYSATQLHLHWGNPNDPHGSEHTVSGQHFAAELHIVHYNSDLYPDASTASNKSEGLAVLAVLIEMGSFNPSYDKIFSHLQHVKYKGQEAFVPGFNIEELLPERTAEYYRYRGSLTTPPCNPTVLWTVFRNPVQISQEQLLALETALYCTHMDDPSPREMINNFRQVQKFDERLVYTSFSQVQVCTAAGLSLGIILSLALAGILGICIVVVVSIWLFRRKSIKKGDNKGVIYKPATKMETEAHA

| SMILES | Ki (hCA XII) [nM] | Ki (hCA IX; [3]) [nM] | also measured |
| --- | --- | --- | --- |
| NS(=O)(=O)c1ccc(NC(=O)Nc2ccc(Br)cc2)cc1 [MST-105, 4-({[(4′-Bromophenyl)amino]carbonyl}amino)benzenesulfonamide] | 7.9 | – | Ki (hCA IX; [1]): 69.3 nM |
| NS(=O)(=O)c1ccc(NC(=O)Nc2ccc(I)cc2)cc1 [MST-106, 4-{[(4′-Iodophenyl)carbamoyl]amino}benzenesulfonamide] | 4.3 | – | Ki (hCA IX; [1]): 24.5 nM |
| CC(=O)c1ccc(NC(=O)Nc2ccc(S(N)(=O)=O)cc2)cc1 [MST-109, 4-{([(4′-Acetylphenyl)amino]carbonyl)amino}benzenesulfonamide] | 4.6 | – | – |
| CC(C)c1ccccc1NC(=O)Nc1ccc(S(N)(=O)=O)cc1 [MST-110, 4-{([(2′-Isopropylphenyl)amino]carbonyl)amino}benzenesulfonamide] | 4.2 | – | Ki (hCA IX; [1]): 0.5 nM |
| CC(C)c1ccc(NC(=O)Nc2ccc(S(N)(=O)=O)cc2)cc1 [MST-111, 4-{([(4′-Isopropylphenyl)amino]carbonyl)amino}benzenesulfonamide] | 49.7 | – | Ki (hCA IX; [1]): 541 nM |
| CCCCc1ccc(NC(=O)Nc2ccc(S(N)(=O)=O)cc2)cc1 [MST-112, 4-({[(4′-Butylphenyl)amino]carbonyl}amino)benzenesulfonamide] | 28.5 | – | Ki (hCA IX; [1]): 376 nM |
| CCCCOc1ccc(NC(=O)Nc2ccc(S(N)(=O)=O)cc2)cc1 [MST-113, 4-{[(4′-Butoxyphenyl)carbamoyl]amino}benzenesulfonamide] | 2.5 | – | Ki (hCA IX; [1]): 0.8 nM |
| COc1ccc(NC(=O)Nc2ccc(S(N)(=O)=O)cc2)c(C)c1 [MST-120, 4-{([(4′-Methoxy-2′-methylphenyl)amino]carbonyl)amino}benzenesulfonamide] | 6 | – | – |
| NS(=O)(=O)c1ccc(NC(=O)Nc2ccc(Cl)cc2)cc1 [MST-124, 4-{([(4′-chlorophenyl)amino]carbonylamino)}benzenesulfonamide] | 5.3 | – | – |
| NS(=O)(=O)c1cccc(NC(=O)Nc2ccc(I)cc2)c1 [MST-128, 3-(3-(4′-Iodophenyl)ureido)benzenesulfonamide] | – | – | Ki (hCA IX; [2]): 13.1 nM |
| NS(=O)(=O)c1cccc(NC(=O)Nc2ccc(F)cc2)c1 [MST-129, 3-(3-(4′-Fluorophenyl)ureido)benzenesulfonamide] | – | – | Ki (hCA IX; [2]): 10.2 nM |
| CC(=O)c1ccc(NC(=O)Nc2cccc(S(N)(=O)=O)c2)cc1 [MST-131, 3-(3-(4′-Acetylphenyl)ureido)benzenesulfonamide] | – | – | Ki (hCA IX; [2]): 15.1 nM |
| CC(C)c1ccccc1NC(=O)Nc1cccc(S(N)(=O)=O)c1 [MST-132, 3-(3-(2′-Isopropylphenyl)ureido)benzenesulfonamide] | – | – | Ki (hCA IX; [2]): 18.5 nM |
| NS(=O)(=O)c1ccc(NC(=O)Nc2ccc(Cl)cc2F)cc1 [MST-134, 4-(3-(4′-chloro-2-fluorophenyl)ureido)benzenesulfonamide] | – | 5.1 | – |
| NS(=O)(=O)c1ccc(NC(=O)Nc2cc(F)c(F)cc2F)cc1 [MST-137, 4-(3-(2′,4′,5′-trifluorophenyl)ureido)benzenesulfonamide] | – | 7.6 | – |
| NS(=O)(=O)c1ccc(NC(=O)Nc2cc(C(F)(F)F)ccc2F)cc1 [MST-138, 4-(3-(2′-fluoro-5′-(trifluoromethyl)phenyl)ureido)benzenesulfonamide] | – | 7.4 | – |
| NS(=O)(=O)c1ccc(NC(=O)Nc2ccc(F)c(F)c2F)cc1 [MST-140, 4-(3-(2′,3′,4′-trifluorophenyl)ureido)benzenesulfonamide] | – | 9.6 | – |
| NS(=O)(=O)c1ccc(NC(=O)Nc2ccccc2F)cc1 [MST-141, 4-(3-(2′-fluorophenyl)ureido)benzenesulfonamide] | – | 7.7 | – |
| NS(=O)(=O)c1ccc(NC(=O)Nc2ccc(F)cc2F)cc1 [MST-142, 4-(3-(2′,4′-difluorophenyl)ureido)benzenesulfonamide] | – | 3.7 | – |
| NS(=O)(=O)c1ccc(NC(=O)Nc2cc(Cl)ccc2Cl)cc1 [MST-144, 4-(3-(2′,5′-dichlorophenyl)ureido)benzenesulfonamide] | – | 8.9 | – |
| NS(=O)(=O)c1ccc(NC(=O)Nc2cc([N+](=O)[O-])ccc2Cl)cc1 [MST-145, 4-(3-(2′-Chloro-5-nitrophenyl)ureido)benzenesulfonamide] | – | 8.2 | – |
